Reference: the NIST ThermoML archive (doi:10.1021/acs.jced.5b01007)
± gives the expanded uncertainty stated by the source.

Details: Fluid (supercritical or subcritical phases), Frequency=8 MHz, Pulse-echo method

O=O [oxygen]
Details	speed of sound [m/s]
299.96 K, 14860 kPa	352.65 ± 0.38
299.97 K, 9920 kPa	340.22 ± 0.38
299.97 K, 20050 kPa	370.99 ± 1.6
299.97 K, 25030 kPa	392.82 ± 1.9
299.97 K, 29960 kPa	417.33 ± 2.1
299.97 K, 34960 kPa	443.87 ± 2.2
299.97 K, 39960 kPa	471.2 ± 2.2
299.97 K, 45030 kPa	498.92 ± 2.2
299.97 K, 50010 kPa	525.82 ± 2.2
299.97 K, 55140 kPa	552.86 ± 2.1
299.97 K, 60160 kPa	578.47 ± 2.1
299.97 K, 64960 kPa	602.28 ± 2
299.97 K, 69690 kPa	624.95 ± 2
300 K, 74030 kPa	645.07 ± 1.9
349.98 K, 8030 kPa	367.01 ± 0.39
349.98 K, 29990 kPa	433.29 ± 1.6
349.98 K, 49900 kPa	518.73 ± 1.8
349.98 K, 78850 kPa	641.85 ± 1.7
349.99 K, 10070 kPa	370.9 ± 0.39
349.99 K, 14980 kPa	382.53 ± 0.4
349.99 K, 19640 kPa	396.03 ± 0.4
349.99 K, 24980 kPa	414.2 ± 1.5
349.99 K, 35080 kPa	454.09 ± 1.7
349.99 K, 45020 kPa	497.15 ± 1.8
349.99 K, 55110 kPa	541.66 ± 1.8
349.99 K, 59910 kPa	562.59 ± 1.8
349.99 K, 68690 kPa	600.07 ± 1.7
350.03 K, 40050 kPa	475.39 ± 1.8
350.03 K, 64930 kPa	584.11 ± 1.8
399.05 K, 83180 kPa	648.15 ± 1.5
399.06 K, 19900 kPa	421.58 ± 0.42
399.07 K, 74590 kPa	617.2 ± 1.6
399.07 K, 79990 kPa	636.78 ± 1.5
399.08 K, 34890 kPa	469.6 ± 1.5
399.08 K, 39970 kPa	487.82 ± 1.5
399.08 K, 44980 kPa	506.29 ± 1.6
399.08 K, 54970 kPa	543.88 ± 1.6
399.08 K, 60070 kPa	563.14 ± 1.6
399.08 K, 64900 kPa	581.28 ± 1.6
399.08 K, 70100 kPa	600.65 ± 1.6
399.09 K, 4960 kPa	388.03 ± 0.4
399.09 K, 6020 kPa	389.77 ± 0.4
399.09 K, 7950 kPa	393.26 ± 0.4
399.09 K, 25010 kPa	436.72 ± 1.3
399.09 K, 29900 kPa	452.47 ± 1.4
399.09 K, 50090 kPa	525.43 ± 1.6
399.1 K, 15010 kPa	408.72 ± 0.41
399.11 K, 9980 kPa	397.34 ± 0.4
449.79 K, 87520 kPa	660.32 ± 1.4
449.87 K, 80010 kPa	636.12 ± 1.4
449.88 K, 75270 kPa	620.61 ± 1.4
449.88 K, 85020 kPa	652.33 ± 1.4
449.89 K, 65180 kPa	587.16 ± 1.4
449.89 K, 70120 kPa	603.58 ± 1.4
449.9 K, 55090 kPa	553.54 ± 1.4
449.9 K, 60070 kPa	570.12 ± 1.4
449.93 K, 35030 kPa	488.6 ± 1.3
449.93 K, 40050 kPa	504.35 ± 1.4
449.94 K, 6010 kPa	414.33 ± 0.41
449.94 K, 9970 kPa	422.01 ± 0.41
449.94 K, 15000 kPa	433.26 ± 0.42
449.94 K, 20010 kPa	445.6 ± 1.1
449.94 K, 24940 kPa	458.85 ± 1.2
449.94 K, 30000 kPa	473.4 ± 1.3
449.94 K, 45090 kPa	520.58 ± 1.4
449.94 K, 49910 kPa	536.52 ± 1.4
449.95 K, 8010 kPa	418.16 ± 0.41
449.95 K, 88050 kPa	662.01 ± 1.4
498.83 K, 69940 kPa	610.55 ± 1.3
498.89 K, 60010 kPa	580.54 ± 1.3
498.89 K, 65000 kPa	595.63 ± 1.3
498.9 K, 95000 kPa	684.96 ± 1.3
498.91 K, 74960 kPa	625.69 ± 1.3
498.91 K, 90000 kPa	670.28 ± 1.3
498.91 K, 100060 kPa	699.53 ± 1.3
498.92 K, 79990 kPa	640.74 ± 1.3
498.93 K, 84890 kPa	655.27 ± 1.3
498.94 K, 10000 kPa	444.64 ± 0.43
498.99 K, 40010 kPa	521.13 ± 1.2
499 K, 29910 kPa	492.81 ± 1.2
499 K, 34730 kPa	506.11 ± 1.2
499 K, 44900 kPa	535.41 ± 1.3
499.01 K, 24900 kPa	479.52 ± 1.1
499.02 K, 14940 kPa	455.31 ± 0.43
499.03 K, 4920 kPa	434.71 ± 0.42
499.03 K, 5910 kPa	436.52 ± 0.42
499.03 K, 7820 kPa	440.23 ± 0.42
499.03 K, 49930 kPa	550.29 ± 1.3
499.03 K, 54810 kPa	564.89 ± 1.3
499.04 K, 20070 kPa	467.39 ± 1.1
